# Read-outs that look alike come from different tables or passages of the source.
# What was measured:
# Format in all cases: cell-based, human
# CFPAC-1 = test: MTT cytotoxicity assay, 72 h; details: Homo sapiens, CFPAC-1, IC50 ± SD
# Method: (§1) In our study, the human cancer cell lines used were CFAPC- 1 (pancreatic adenocarcinoma); NCI-H460 (large cell lung); HL-60 (acute promyelocytic leukaemia); CACO2 (colorectal adenocarcinoma); HCT-116 (colorectal carcinoma); K562 (chronic myeloid leukaemia); MCF-7 (breast adenocarcinoma); and MRC-5 control cells (normal fibroblasts).
# (§2) CFAPC-1, NCI-H460 H1975, HL-60, HCT-116, CACO2, K562, MCF-7, and MCR-5 were grown and maintained in RPMI 1640 and DMEM F12 as appropriate with 10% fetal bovine serum, 100 UI/mL penicillin–streptomycin, and cultured al 37 °C in 5% CO2 humidified atmosphere. Control cultures were treated with dimethyl sulfoxide (1%) alone at the same concentration as in the purine derivatives treatment. Cell viability was determined by trypan blue dye exclusion. Cell numbers were counted in hemocytometer by light microscopy.
# (§3) Cytotoxicity assays were performed by using the MTT reduction method as described in the literature. Briefly, cancer cell lines were plated in a flat-bottom 96-wells plate at 1 × 10^4 cells per well density. Then, the cells were incubated with synthetized compounds at different concentrations (from 0.1 to 100 µM) in 200 µL of 10% fetal bovine serum-RPMI or EMEM culture medium at 37 °C for 72 h. Then, 10 µL of MTT was added at a final concentration of 0.5 mg/mL, incubated at 37 °C for 4 h, and then solubilized with 10% sodium dodecyl sulphate (SDS) in 0.1 mM HCl and incubated overnight at 37 °C. Formazan formation was measured at 570 nm in a multi-well reader (StatFax 4200).
# HCT-116 = test: MTT cytotoxicity assay, 72 h; details: Homo sapiens, HCT-116, IC50 ± SD
# Method: as §1, §2, §3
# HL-60 = test: MTT cytotoxicity assay, 72 h; details: for IC50: Homo sapiens
# Method: as §1, §2, §3
# K562 = test: MTT cytotoxicity assay, 72 h
# Method: as §1, §2, §3
# MCF-7 = test: MTT cytotoxicity assay, 72 h
# Method: as §1, §2, §3
# NCI-H460 = test: MTT cytotoxicity assay, 72 h
# Method: as §1, §2, §3
# CACO2 = test: MTT cytotoxicity assay, 72 h; details: Homo sapiens, Caco-2, IC50 ± SD
# Method: Cytotoxicity assays were performed by using the MTT reduction method as described in the literature [23, 37]. Briefly, cancer cell lines were plated in a flat-bottom 96-wells plate at 1 × 10^4 cells per well density. Then, the cells were incubated with synthetized compounds at different concentrations (from 0.1 to 100 µM) in 200 µL of 10% fetal bovine serum-RPMI or EMEM culture medium at 37 °C for 72 h. Then, 10 µL of MTT was added at a final concentration of 0.5 mg/mL, incubated at 37 °C for 4 h, and then solubilized with 10% sodium dodecyl sulphate (SDS) in 0.1 mM HCl and incubated overnight at 37 °C. Formazan formation was measured at 570 nm in a multi-well reader (StatFax 4200).
# MRC-5 = test: MTT cytotoxicity assay, 72 h, normal control cells; details: Homo sapiens, MRC5, IC50 ± SD, normal fibroblasts
# Method: as §1, §2, §3
# HL-60 cells [1] = test: Cell viability by propidium iodide flow cytometry; details: HL-60, 50 μM, 24 h, PI staining
# Excerpt: Next, in order to determinate the cell death type induced by the most promising compounds, we performed a flow cytometry analysis of cell viability in cell line HL-60 treated with the most promising compounds (selected according to their IC50 values and SI). The HL-60 cancer cells were chosen due to their sensitivity to prepared compounds. […] As a preliminary apoptosis filter, propidium iodide (PI) staining was used through flow cytometry analysis which discriminated a population of viable cells impermeable to PI (PI negative) from necrotic cells PI-permeable (PI positive) and apoptotic cells (the difference of the previous two). The results are shown in Figure 7, illustrating that all purine derivatives tested induced apoptosis on HL-60 cells. Around 40% of apoptotic cells were detected in a culture treated with compounds 7a and 7i, 30% by 7e, 7g, and 7h and 70% by 7d and 7j. […] (For dot plots, see Supplementary Information Figures S1–S3.)
# Cell viability was analyzed by flow cytometry as previously described. In this assay, after setting the baseline to exclude cell debris, cells impermeable to propidium iodide (PI negative) are considered as viable. Two populations of PI-permeable dead cells are distinguished based on fluorescence intensity, corresponding to either hypodiploid apoptotic cells or necrotic cells with intact DNA. Here, HL60 cells were incubated with concentrations of 50 µM of each compound for 24 h at 37 °C. Cells were harvested and stained with 10 µg/mL of propidium iodide to determine cell viability. Samples containing roughly 1 × 10^4 cells were evaluated by flow cytometry (FACScanto II; Becton Dickinson, Mountain View, CA) and analyzed using FCS Express v6 software. Three independent biological replicates were performed.
# HL-60 cells [2] = test: Annexin-V FITC/PI apoptosis assay by flow cytometry; details: for Q2 (late apoptosis) cells / Q3 (viable) cells: 24 h
# Method: To assess an unequivocal identification of apoptosis, annexin-V FITC is commonly combined with PI to understand if cells are viable, apoptotic, or necrotic through differences in plasma membrane integrity and permeability. To better understand the ability of compound 7h (the lowest IC50 values and high SI) to induce cell death, we performed the annexin-V FITC/PI assay. HL-60 cells were treated with 7h at the dose corresponding to 5 and 50 μM by 24 h, then harvested and stained with annexin-V FITC and PI (Figure 8). […] In addition, Figure 8 illustrates a discrete increase in the apoptosis (Q2 and Q4) from 5 to 50 µM, as well as an increase in necrosis at the concentration of 50 µM.
# HL60 cells were seeded into a 12-well plate (5 × 10^5 per well) and incubated in RPMI 1640 […] for 24 h at 37 °C—then, replaced with fresh medium containing the tested compound 7h at indicated concentrations for another 24 h. The cells were collected and then used the Annexin-V/PI Alexa Fluor 488 apoptosis kit (Invitrogen, Carlsbad, CA, USA) according to the instruction of manufacturer to detect the apoptosis cells, which were analyzed by flow cytometry (BD; FACScanto II, Mountain View, CA) and data were processed using FCS Express v6 software. Two independent biological replicates were performed.
smiles,measurement,setting,value
"O=[N+]([O-])c1ccc(N2CCN(c3nc(Cl)nc4c3ncn4C3CCCC3)CC2)cc1 [7h, 2-Chloro-9-cyclopentyl-6-(4-(4-nitrophenyl)piperazin-1-yl)-9H-purine]",IC50,CFPAC-1,> 100000 nM
same,IC50,HCT-116,30000 ± 7100 nM
same,IC50,"HL-60; HL-60, 72 h, MTT, 72 h, IC50 ± SD, read-out: IC50 HL-60",400 ± 10 nM
same,IC50,"HL-60; HL-60, -logIC50 in molar concentration, Table S1, read-out: Experimental pIC50 (HL-60) (converted)",400 nM
same,Selectivity Index (SI) MRC-5/HL-60,HL-60; IC50 in MRC-5 / IC50 in HL-60,> 250
same,IC50,"K562; Homo sapiens, K562, 72 h, MTT, 72 h, IC50 ± SD",1020 ± 40 nM
same,Selectivity Index (SI) MRC-5/K562,K562; IC50 in MRC-5 / IC50 in K562,> 98
same,Selectivity Index (SI) MRC-5/MCF-7,MCF-7; IC50 in MRC-5 / IC50 in MCF-7,> 64.5
same,IC50,"MCF-7; MTT, 72 h, IC50 ± SD",1550 ± 340 nM
same,IC50,"NCI-H460; Homo sapiens, NCI-H460, 72 h, MTT, 72 h, IC50 ± SD, read-out: IC50 NCI-H460",1300 nM
same,IC50,"NCI-H460; Homo sapiens, NCI-H460, -logIC50 in molar concentration, Table S2, read-out: Experimental pIC50 (NCI-H460) (converted)",1310 nM
same,Selectivity Index (SI) MRC-5/NCI-H460,NCI-H460; IC50 in MRC-5 / IC50 in NCI-H460,> 76.3
same,IC50,"NCI-H460; MTT, 72 h, IC50 ± SD, read-out: IC50 NCI-H460",1310 ± 70 nM
same,IC50,CACO2,> 100000 nM
same,IC50,MRC-5,> 100000 nM
same,apoptotic cells,HL-60 cells [1],~30%
same,Q2 (late apoptosis) cells,"HL-60 cells [2]; HL-60, 5 μM",36.5%
same,Q3 (viable) cells,"HL-60 cells [2]; HL-60, 5 μM, 5 µM",~55%
same,Q2 (late apoptosis) cells,"HL-60 cells [2]; HL-60, 50 μM",37.7%
same,Q3 (viable) cells,"HL-60 cells [2]; HL-60, 50 μM, 50 µM",38%
same,viability at 5 µM,"HL-60 cells [2]; Homo sapiens, HL-60, 24 h, HL-60, 5 μM, read-out: Q3 (viable) cells",55.2%
same,viability at 50 µM,"HL-60 cells [2]; Homo sapiens, HL-60, 24 h, HL-60, 50 μM, read-out: Q3 (viable) cells",37.8%
